From patent publication US20250213561A1, “SELECTIVE HYPOTHALAMUS PERMEABLE HDAC6 INHIBITORS FOR TREATMENT OF LEPTIN-RESISTANT OBESITY” (The Children’s Medical Center Corporation, priority 2022, published 2025)

Assays:
[1] = test system: DIO mice; experiment: Chronic treatment of DIO mice (body weight, food intake, DEXA, glucose homeostasis); format: in vivo; details: for hepatic steatosis (H&E liver): 3 weeks; for food intake: 3 weeks treatment; for glucose tolerance test (GTT): after 1 week; for HOMA-IR insulin resistance / serum insulin levels / serum leptin levels: after 3 weeks; for food intake and total body fat mass (summary): high fat diet induced mice
Protocol: DIO mice were treated with ACY775 (10 mg/kg/day, i.p.) for 3 weeks. Daily body weight (g) of DIO mice treated with vehicle (n=17) or ACY775 (n=17) during 3 weeks of treatment was determined. Daily food intake (g) during 3 weeks of vehicle or ACY775 treatment was assessed. 24 hours' food intake per mouse during the first week of vehicle or ACY775 treatment was determined. Serum leptin (ng/ml) levels after 3 weeks of vehicle (n=24) or ACY775 (n=24) treatment was assessed. Lean mass (g), fat mass (g) and fat percentage (%) after 3 weeks of vehicle (n=17) or ACY775 (n=17) treatment measured by Dual-energy X-ray absorptiometry (DEXA) scan. DEXA scans were performed in two different cohorts. Glucose tolerance test (GTT) after 1 week of vehicle (n=33) or ACY775 (n=26) treated DIO mice was assessed. Area of curve (AOC) analysis for GTT was performed. Blood glucose (mg/dl) levels after 1 week of vehicle (n=17) or ACY775 (n=16) were assessed in treated DIO mice. Insulin tolerance test (ITT) was performed after 2 weeks of vehicle (n=31) or ACY775 (n=21) treatment of DIO mice. Serum insulin (ng/ml) levels were measured after 3 weeks of vehicle (n=22) or ACY775 (n=21) in treated DIO mice. A homeostatic model assessment of insulin resistance (HOMA-IR) was analyzed after 3 weeks of vehicle (n=14) or ACY775 (n=13) treated DIO mice.
Food intake was analyzed hourly until 3:00 am. […] DEXA scans were performed in two different cohorts.
DIO mice then were treated with ricolinostat (50 mg/kg, i.p.) for 3 weeks. Daily body weight (g), daily food intake (g), serum leptin (ng/ml) levels after 3 weeks of vehicle (n-8) or ricolinostat (n=8) treatment, lean mass (g); fat mass and fat percentage (%) after 3 weeks of vehicle (n=16) or ricolinostat (n=17) treatment measured by DEXA scan were determined.
Blood glucose (mg/dl) levels were measured after 1 week of vehicle (n=16) or ricolinostat (n=16) treated DIO mice. GTT after 1 week of vehicle (n=17) or ricolinostat (n=16) treatment of DIO mice was assessed. AOC analysis for GTT was performed. ITT after 2 weeks of vehicle (n=17) or ricolinostat (n=16) treated DIO mice was measured. Serum insulin (ng/ml) levels after 3 weeks of vehicle (n=8) or ricolinostat (n=8) treatment were measured in DIO mice. Liver sections from 3 weeks of vehicle or ricolinostat treated DIO mice were stained by H&E.
DIO mice then were treated with bavarostat (10 mg/kg, i.p.) for 3 weeks and daily body weight (g) of DIO mice treated with Veh (n=9) or bavarostat (n=9) measured during the three weeks of treatment period. Daily food intake (g) during 3 weeks of Veh or bavarostat treatment was also measured.
ACY1083 was administered to DIO mice as described in Example 3.

[2] = test system: HDAC6; experiment: Ac-tubulin immunoblotting in HEK293 cells; format: cell-based
[3] = biological target: HDAC6 (Mus musculus (Mouse), UniProt Q9Z2V5); experiment: LepRb acetyl-lysine immunoblotting in transfected HEK293 cells; format: cell-based; details: 200 nM, 0.5-3 h
Protocol: HEK293 cells were transfected with the plasmids and were treated with vehicle or ACY775. Subsequently Flag immunoprecipitation was used to pull down LepRb followed by Ac^Lys or Flag immunoblotting.
To test whether HDAC6 can deacetylate LepRb, HEK293 cells were transfected with plasmids (LepRb-Flag, HA-p300 and HDAC6-myc). LepRb was immunoprecipitated by Flag antibodies, which was followed by acetyl-lysine (Ac^Lys) or immunoblottings.
Next, cells were transfected with plasmids (LepRb-Flag, HA-p300 and HDAC6-myc) and subsequently treated with ACY775 ([…]) for 0.5, 1, 2 and 3 h. […] Next, to investigate whether HDAC6 has any effect on LepRb tyrosine phosphorylation, which is indicative of LepRb activation, HEK 293 cells were transfected with LepRb and HDAC6-Myc plasmids in the indicated order and the cells stimulated with leptin (200 ng/ml) for 10 and 60 minutes. The Flag immunoprecipitates were exposed to phospho-tyrosine (p^Tyr) immunoblotting.

[4] = test system: DMH neurons; experiment: c-Fos immunostaining in DMH of DIO mice; format: in vivo; details: fasting, acute 10 mg/kg i.p.
Protocol: Following the bilateral injection of AAV-sgHDAC6 into the arcuate nucleus of Agrp-ires-cre::LSL-Cas9-GFP (Agrp-Cre^+/−::Cas9^+/−) or control LSL-Cas9-GFP (Cas9^+/−) mice, immunostaining to detect the expression of mCherry and GFP was performed. AAV-sg-HDAC6 injected Agrp-Cre^+/−::Cas9^+/− (HDAC6^Agrp-Δ) and Cas9^+/−(HDAC6^WT) DIO mice (n=7 for each group) were fasted for 24 hours, and injected with ACY775 (10 mg/kg. i.p). Hourly total dark cycle food intake (g) (n=7 for each group) of these mice after ACY775 injection was measured. Body weight of AAV-sg-HDAC6 injected HDAC6^Agrp-Δ (n=11) and HDAC6^WT (n=6) mice were measured during 3 weeks of ACY775 (10 mg/kg/day, i.p.) treatment. Daily average food intake of HDAC6^Agrp-Δ (n=11) and HDAC6^WT (n=6) mice was measured during 3 weeks of ACY775 (10 mg/kg/day, i.p.) treatment. 24-hour food intake average of HDAC6^Agrp-Δ and HDAC6^WT mice during the 3 weeks of ACY775 treatment was assessed. Serum leptin level (ng/ml) of HDAC6^Agrp-Δ and HDAC6^WT mice after 2 weeks of ACY775 treatment (n=13 for HDAC6^WT and n=18 for HDAC6^Agrp-Δ) was measured. Lean mass (g); fat mass; and fat percentage (%) of HDAC6^Agrp-Δ and HDAC6^WT DIO mice after 3 weeks of ACY775 treatment was measured by DEXA scan. The HDAC6 inhibitor responsive neurons in the dorsomedial hypothalamus (DMH) were assessed. […]

Chain of HDAC6 (Mus musculus (Mouse), UniProt Q9Z2V5) (Q9Z2V5 whole entry): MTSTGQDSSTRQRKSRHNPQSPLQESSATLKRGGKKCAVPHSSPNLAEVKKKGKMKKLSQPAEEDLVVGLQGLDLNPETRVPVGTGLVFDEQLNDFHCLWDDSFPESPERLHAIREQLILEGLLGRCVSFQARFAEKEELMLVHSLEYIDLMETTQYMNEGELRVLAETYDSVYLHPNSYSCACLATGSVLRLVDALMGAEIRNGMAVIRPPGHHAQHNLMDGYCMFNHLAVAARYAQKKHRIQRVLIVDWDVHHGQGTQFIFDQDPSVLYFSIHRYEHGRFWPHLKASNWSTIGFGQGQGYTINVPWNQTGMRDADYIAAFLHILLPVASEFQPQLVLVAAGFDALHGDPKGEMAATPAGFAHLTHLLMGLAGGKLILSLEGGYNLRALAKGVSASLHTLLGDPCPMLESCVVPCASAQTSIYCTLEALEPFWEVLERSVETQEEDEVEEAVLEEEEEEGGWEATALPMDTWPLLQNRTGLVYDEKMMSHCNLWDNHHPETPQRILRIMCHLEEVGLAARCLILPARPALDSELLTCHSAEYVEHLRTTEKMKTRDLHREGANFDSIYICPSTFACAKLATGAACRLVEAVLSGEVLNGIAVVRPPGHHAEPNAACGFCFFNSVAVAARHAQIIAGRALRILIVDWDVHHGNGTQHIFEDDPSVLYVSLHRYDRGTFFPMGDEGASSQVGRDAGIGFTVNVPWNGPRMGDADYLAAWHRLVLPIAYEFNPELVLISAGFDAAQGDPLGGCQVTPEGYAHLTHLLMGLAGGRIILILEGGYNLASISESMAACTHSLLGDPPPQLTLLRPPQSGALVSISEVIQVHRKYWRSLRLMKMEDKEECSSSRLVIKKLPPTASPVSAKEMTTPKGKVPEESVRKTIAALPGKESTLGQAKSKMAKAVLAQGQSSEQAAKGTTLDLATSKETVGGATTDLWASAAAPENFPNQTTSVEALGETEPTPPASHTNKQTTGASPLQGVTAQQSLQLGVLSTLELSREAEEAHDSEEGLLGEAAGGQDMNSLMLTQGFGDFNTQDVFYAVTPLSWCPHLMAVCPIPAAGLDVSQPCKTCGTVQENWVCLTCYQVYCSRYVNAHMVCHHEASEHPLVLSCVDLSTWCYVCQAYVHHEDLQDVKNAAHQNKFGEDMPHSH

Row | Compound | insulin tolerance test (ITT) ([1]; DIO mice) | hepatic steatosis (H&E liver) ([1]; DIO mice) | food intake ([1]; DIO mice) | glucose tolerance test (GTT) ([1]; DIO mice) | HOMA-IR insulin resistance ([1]; DIO mice) | serum insulin levels ([1]; DIO mice) | serum leptin levels ([1]; DIO mice) | food intake and total body fat mass (summary) [1] | tubulin acetylation (HDAC6 inhibitor activity in cells) [2] | daily food intake on treatment ([1]; DIO mice, ACY775 10 mg/kg, ACY738 50 mg/kg i.p.) [g] | deacetylation of LepRb [3] | c-fos positive cell number in the DMH [4]
1 | O=C(NO)c1cnc(NC2(c3ccccc3)CC2)nc1 [ACY738] | improved insulin tolerance | improved hepatic steatosis | severely reduced | significant improvement of glucose homeostasis | ameliorated insulin resistance | reduced insulin levels | significantly decreased | significant reduction of food intake and total body fat mass | inhibits the HDAC6 activity |  |  | 
2 | O=C(NO)c1cnc(NC2(c3cccc(F)c3)CCCCC2)nc1 [ACY775, 2-[[1-(3-fluorophenyl)cyclohexyl]amino]-N-hydroxy-5-pyrimidinecarboxamide] |  | almost completely abolished hepatic steatosis | highly significant reduction | significantly improved glucose tolerance | significantly reduced the insulin resistance | significantly reduced the circulating insulin levels | significantly downregulated | significant reduction of food intake and total body fat mass | increases tubulin acetylation | 0.85 ± 0.06 | can completely block deactylation of LepRb | major increase in c-fos positive cell number
